Source: ChEMBL document CHEMBL4000250, “Synthesis of new derivatives of 21-imidazolyl-16-dehydropregnenolone as inhibitors of 5α-reductase 2 and with cytotoxic activity in cancer cells” (Bioorg Med Chem, 2017)
Active and inactive are the calls of the source. No cut-off for these calls is given here.

What follows are compounds tested on Syrian golden hamster (assay: Toxicity in castrated golden hamster at 2 mg/kg, sc co-administered with testosterone for 6 days). Details: in vivo, 144 h.
Type: organism-based, Mesocricetus auratus

Question: For `CCCCC(=O)O[C@H]1CC[C@@]2(C)C(=CC[C@@H]3[C@@H]2CC[C@]2(C)C(C(=O)Cn4ccnc4)=CC[C@@H]32)C1`, which Activity is on record?
Answer: Non-Toxic

Question: For `C[C@]12CC[C@H](OC(=O)C3CCCC3)CC1=CC[C@@H]1[C@@H]2CC[C@]2(C)C(C(=O)Cn3ccnc3)=CC[C@@H]12`, which Activity is on record?
Answer: Non-Toxic

Question: `CC(=O)O[C@H]1CC[C@@]2(C)C(=CC[C@@H]3[C@@H]2CC[C@]2(C)C(C(=O)Cn4ccnc4)=CC[C@@H]32)C1` was tested. Which Activity did it give?
Answer: Non-Toxic

What follows are compounds tested against T1, 3-oxo-5-alpha-steroid 4-dehydrogenase 1 (Rattus norvegicus, UniProt P24008) (assay: Inhibition of rat liver microsomal 5-alpha reductase 1 assessed as decrease in conversion of testosterone to dihydrotestosterone by chromatographic method). Details: not given.
T1 sequence (P24008 whole entry): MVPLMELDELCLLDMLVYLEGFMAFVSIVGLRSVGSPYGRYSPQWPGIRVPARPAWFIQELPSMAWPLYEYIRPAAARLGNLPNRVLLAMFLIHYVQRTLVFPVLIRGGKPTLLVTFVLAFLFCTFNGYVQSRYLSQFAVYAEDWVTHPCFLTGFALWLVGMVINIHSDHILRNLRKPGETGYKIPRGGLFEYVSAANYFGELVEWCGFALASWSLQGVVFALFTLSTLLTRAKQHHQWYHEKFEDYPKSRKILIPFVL

Question: For `CCCCC(=O)O[C@H]1CC[C@@]2(C)C(=CC[C@@H]3[C@@H]2CC[C@]2(C)C(C(=O)Cn4ccnc4)=CC[C@@H]32)C1`, which IC50 is on record?
Answer: Not Active

Question: For `C[C@]12CC[C@H](OC(=O)C3CCCC3)CC1=CC[C@@H]1[C@@H]2CC[C@]2(C)C(C(=O)Cn3ccnc3)=CC[C@@H]12`, which IC50 is on record?
Answer: Not Active

Question: With `CC(=O)O[C@H]1CC[C@@]2(C)C(=CC[C@@H]3[C@@H]2CC[C@]2(C)C(C(=O)Cn4ccnc4)=CC[C@@H]32)C1` as the compound, how does the IC50 read?
Answer: Not Active

These compounds were tested on Syrian golden hamster (assay: Hyperplasia activity in castrated golden hamster assessed as prostate weight at 2 mg/kg, sc co-administered with testosterone for 6 days (reference value: 98 +/- 12.6 mg)). Details: not given.
Type: functional, Mesocricetus auratus

Question: How did the Activity turn out when `CCCCC(=O)O[C@H]1CC[C@@]2(C)C(=CC[C@@H]3[C@@H]2CC[C@]2(C)C(C(=O)Cn4ccnc4)=CC[C@@H]32)C1` was run?
Answer: 80.93 mg

Question: Which Activity does the source give for `C[C@]12CC[C@H](OC(=O)C3CCCC3)CC1=CC[C@@H]1[C@@H]2CC[C@]2(C)C(C(=O)Cn3ccnc3)=CC[C@@H]12` here?
Answer: 65.1 mg

Question: With `CC(=O)O[C@H]1CC[C@@]2(C)C(=CC[C@@H]3[C@@H]2CC[C@]2(C)C(C(=O)Cn4ccnc4)=CC[C@@H]32)C1` as the compound, how does the Activity read?
Answer: 85.8 mg

Each compound was assayed on SK-LU-1 (assay: Cytotoxicity against human SKLU1 cells assessed as growth inhibition at 50 uM after 48 hrs by sulforhodamine B assay relative to control). Details: not given.
Type: functional

Question: `C[C@]12CC[C@H](OC(=O)C3CCCC3)CC1=CC[C@@H]1[C@@H]2CC[C@]2(C)C(C(=O)Cn3ccnc3)=CC[C@@H]12` was tested. Which “growth inhibition (GI)” value did it give?
Answer: inactive

Same assay, conditions: SK-LU-1, 48 h, read-out: GI

Question: With `CCCCC(=O)O[C@H]1CC[C@@]2(C)C(=CC[C@@H]3[C@@H]2CC[C@]2(C)C(C(=O)Cn4ccnc4)=CC[C@@H]32)C1` as the compound, how does the inhibition of growth at 50 µM read?
Answer: 39.2%

Question: With `CC(=O)O[C@H]1CC[C@@]2(C)C(=CC[C@@H]3[C@@H]2CC[C@]2(C)C(C(=O)Cn4ccnc4)=CC[C@@H]32)C1` as the compound, how does the inhibition of growth at 50 µM read?
Answer: 96.7%

What follows are compounds tested against T2, 3-oxo-5-alpha-steroid 4-dehydrogenase 2 (Homo sapiens, UniProt P31213) (assay: Inhibition of human prostate 5-alpha reductase 2 assessed as decrease in conversion of testosterone to dihydrotestosterone by chromatographic method). Details: not given.
T2 sequence (P31213 whole entry): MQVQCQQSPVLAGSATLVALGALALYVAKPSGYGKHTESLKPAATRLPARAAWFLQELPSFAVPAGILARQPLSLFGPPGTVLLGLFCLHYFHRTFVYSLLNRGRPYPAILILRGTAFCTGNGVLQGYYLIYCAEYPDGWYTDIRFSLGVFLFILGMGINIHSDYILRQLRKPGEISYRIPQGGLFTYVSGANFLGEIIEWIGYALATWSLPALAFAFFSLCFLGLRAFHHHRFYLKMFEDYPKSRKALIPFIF

Question: Which IC50 does the source give for `CCCCC(=O)O[C@H]1CC[C@@]2(C)C(=CC[C@@H]3[C@@H]2CC[C@]2(C)C(C(=O)Cn4ccnc4)=CC[C@@H]32)C1` here?
Answer: Not Active

Same assay, conditions: read-out: IC50

Question: `C[C@]12CC[C@H](OC(=O)C3CCCC3)CC1=CC[C@@H]1[C@@H]2CC[C@]2(C)C(C(=O)Cn3ccnc3)=CC[C@@H]12` was tested. Which IC50 did it give?
Answer: 0.035 µM

Question: How did the IC50 turn out when `CC(=O)O[C@H]1CC[C@@]2(C)C(=CC[C@@H]3[C@@H]2CC[C@]2(C)C(C(=O)Cn4ccnc4)=CC[C@@H]32)C1` was run?
Answer: 122 µM

Each compound was assayed on MCF7 (assay: Cytotoxicity against human MCF7 cells assessed as growth inhibition at 50 uM after 48 hrs by sulforhodamine B assay relative to control). Details: not given.
Type: functional

Question: For `C[C@]12CC[C@H](OC(=O)C3CCCC3)CC1=CC[C@@H]1[C@@H]2CC[C@]2(C)C(C(=O)Cn3ccnc3)=CC[C@@H]12`, which “growth inhibition (GI)” value is on record?
Answer: inactive

Same assay, conditions: MCF7, 48 h, read-out: GI

Question: Which inhibition of growth at 50 µM does the source give for `CCCCC(=O)O[C@H]1CC[C@@]2(C)C(=CC[C@@H]3[C@@H]2CC[C@]2(C)C(C(=O)Cn4ccnc4)=CC[C@@H]32)C1` here?
Answer: 51.3%

Question: Which inhibition of growth at 50 µM does the source give for `CC(=O)O[C@H]1CC[C@@]2(C)C(=CC[C@@H]3[C@@H]2CC[C@]2(C)C(C(=O)Cn4ccnc4)=CC[C@@H]32)C1` here?
Answer: 77.9%

Each compound was assayed on PC-3 (assay: Cytotoxicity against human PC3 cells assessed as growth inhibition at 50 uM after 48 hrs by sulforhodamine B assay relative to control). Details: not given.
Type: functional

Question: Which “growth inhibition (GI)” value does the source give for `C[C@]12CC[C@H](OC(=O)C3CCCC3)CC1=CC[C@@H]1[C@@H]2CC[C@]2(C)C(C(=O)Cn3ccnc3)=CC[C@@H]12` here?
Answer: inactive

Same assay, conditions: PC-3, 48 h, read-out: GI

Question: Which inhibition of growth at 50 µM does the source give for `CCCCC(=O)O[C@H]1CC[C@@]2(C)C(=CC[C@@H]3[C@@H]2CC[C@]2(C)C(C(=O)Cn4ccnc4)=CC[C@@H]32)C1` here?
Answer: 23.7%

Question: With `CC(=O)O[C@H]1CC[C@@]2(C)C(=CC[C@@H]3[C@@H]2CC[C@]2(C)C(C(=O)Cn4ccnc4)=CC[C@@H]32)C1` as the compound, how does the inhibition of growth at 50 µM read?
Answer: 79.6%

The compounds below were run against T3, Androgen receptor (Rattus norvegicus) (UniProt P15207) (assay: Displacement of [3H]-MIB from rat prostate cytosolic androgen receptor by liquid scintillation counting method). Details: not given.
T3 sequence (whole entry): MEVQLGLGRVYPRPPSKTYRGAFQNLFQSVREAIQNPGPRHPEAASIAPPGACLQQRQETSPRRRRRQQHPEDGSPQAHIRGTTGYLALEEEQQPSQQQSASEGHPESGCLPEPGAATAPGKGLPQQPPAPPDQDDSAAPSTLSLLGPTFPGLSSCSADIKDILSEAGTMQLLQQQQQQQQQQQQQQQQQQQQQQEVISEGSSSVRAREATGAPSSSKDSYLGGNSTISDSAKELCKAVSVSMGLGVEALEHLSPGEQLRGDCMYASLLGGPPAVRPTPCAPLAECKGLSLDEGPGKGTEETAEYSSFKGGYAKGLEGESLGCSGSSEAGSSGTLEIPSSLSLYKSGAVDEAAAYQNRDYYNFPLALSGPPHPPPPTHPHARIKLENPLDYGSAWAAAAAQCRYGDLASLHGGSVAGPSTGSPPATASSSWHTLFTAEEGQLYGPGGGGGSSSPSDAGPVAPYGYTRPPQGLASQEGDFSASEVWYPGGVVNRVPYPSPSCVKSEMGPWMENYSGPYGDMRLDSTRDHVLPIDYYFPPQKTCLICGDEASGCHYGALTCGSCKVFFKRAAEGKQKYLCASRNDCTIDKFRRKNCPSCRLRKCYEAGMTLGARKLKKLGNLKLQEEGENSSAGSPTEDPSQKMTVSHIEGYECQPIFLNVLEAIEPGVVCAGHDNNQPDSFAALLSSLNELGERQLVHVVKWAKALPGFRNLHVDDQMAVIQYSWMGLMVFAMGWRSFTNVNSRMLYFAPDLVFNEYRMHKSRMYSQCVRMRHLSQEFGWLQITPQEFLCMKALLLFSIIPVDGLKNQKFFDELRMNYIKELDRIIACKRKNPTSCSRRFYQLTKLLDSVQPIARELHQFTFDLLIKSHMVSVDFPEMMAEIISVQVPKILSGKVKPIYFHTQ

Question: Which inhibition does the source give for `CCCCC(=O)O[C@H]1CC[C@@]2(C)C(=CC[C@@H]3[C@@H]2CC[C@]2(C)C(C(=O)Cn4ccnc4)=CC[C@@H]32)C1` here?
Answer: inactive

Question: `C[C@]12CC[C@H](OC(=O)C3CCCC3)CC1=CC[C@@H]1[C@@H]2CC[C@]2(C)C(C(=O)Cn3ccnc3)=CC[C@@H]12` was tested. Which inhibition did it give?
Answer: inactive

Question: How did the inhibition turn out when `CC(=O)O[C@H]1CC[C@@]2(C)C(=CC[C@@H]3[C@@H]2CC[C@]2(C)C(C(=O)Cn4ccnc4)=CC[C@@H]32)C1` was run?
Answer: inactive

What follows are compounds tested on Syrian golden hamster (assay: Hyperplasia activity in castrated golden hamster assessed as seminal vesicles weight at 2 mg/kg, sc co-administered with testosterone for 6 days (reference value: 200.6 +/- 55 mg)). Details: not given.
Type: functional, Mesocricetus auratus

Question: Which Activity does the source give for `CCCCC(=O)O[C@H]1CC[C@@]2(C)C(=CC[C@@H]3[C@@H]2CC[C@]2(C)C(C(=O)Cn4ccnc4)=CC[C@@H]32)C1` here?
Answer: 198.33 mg

Question: `C[C@]12CC[C@H](OC(=O)C3CCCC3)CC1=CC[C@@H]1[C@@H]2CC[C@]2(C)C(C(=O)Cn3ccnc3)=CC[C@@H]12` was tested. Which Activity did it give?
Answer: 143.7 mg

Question: How did the Activity turn out when `CC(=O)O[C@H]1CC[C@@]2(C)C(=CC[C@@H]3[C@@H]2CC[C@]2(C)C(C(=O)Cn4ccnc4)=CC[C@@H]32)C1` was run?
Answer: 200.5 mg

Each compound was assayed on Syrian golden hamster (assay: Hyperplasia activity in castrated golden hamster assessed as diameter of pigmented spot of flank organs at 2 mg/kg, sc administered for 6 days (reference value: 5.65 +/- 1.12 mm)). Details: not given.
Type: functional, Mesocricetus auratus

Question: How did the Activity turn out when `CCCCC(=O)O[C@H]1CC[C@@]2(C)C(=CC[C@@H]3[C@@H]2CC[C@]2(C)C(C(=O)Cn4ccnc4)=CC[C@@H]32)C1` was run?
Answer: 2.94 mm

Question: `C[C@]12CC[C@H](OC(=O)C3CCCC3)CC1=CC[C@@H]1[C@@H]2CC[C@]2(C)C(C(=O)Cn3ccnc3)=CC[C@@H]12` was tested. Which Activity did it give?
Answer: 2 mm

Question: With `CC(=O)O[C@H]1CC[C@@]2(C)C(=CC[C@@H]3[C@@H]2CC[C@]2(C)C(C(=O)Cn4ccnc4)=CC[C@@H]32)C1` as the compound, how does the Activity read?
Answer: 3.06 mm
